ChEMBL document CHEMBL1201862, “PubChem BioAssay data set” (2004)
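Each compound was tested at five concentrations against cells in 96-well plates for 48 hours. Here, GI50 denotes the concentration required for 50% inhibition of growth.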 Calls of active or inactive are those of the source. Rule as the data show it: active = GI50 up to about 1.1 µM and inactive = higher.

How the values were obtained:
Experiment in all cases: growth of human tumour cells (NCI), 48 h
OVCAR-3 = tested on: OVCAR-3
KM12 = tested on: KM12
HCT-15 = tested on: HCT-15
SF-268 = tested on: SF-268
OVCAR-5 = tested on: OVCAR-5
U-251 = tested on: U-251
A549 = tested on: A549
SNB-19 = tested on: SNB-19
IGROV-1 = tested on: IGROV-1
SW-620 = tested on: SW-620
MOLT-4 = tested on: MOLT-4
SF-295 = tested on: SF-295
HCC 2998 = tested on: HCC 2998
SNB-75 = tested on: SNB-75
BT-549 = tested on: BT-549
MDA-MB-435 = tested on: MDA-MB-435
MCF7 = tested on: MCF7
HOP-92 = tested on: HOP-92
NCI-H23 = tested on: NCI-H23
NCI/ADR-RES = tested on: NCI/ADR-RES

Row | SMILES | GI50 (OVCAR-3) | GI50 (KM12) | GI50 (HCT-15) [µM] | GI50 (SF-268) | GI50 (OVCAR-5) | GI50 (U-251) | GI50 (A549) | GI50 (SNB-19) | GI50 (IGROV-1) | GI50 (SW-620) | GI50 (MOLT-4) | GI50 (SF-295) | GI50 (HCC 2998) | GI50 (SNB-75) | GI50 (BT-549) | GI50 (MDA-MB-435) | GI50 (MCF7) | GI50 (HOP-92) | GI50 (NCI-H23) | GI50 (NCI/ADR-RES)
1 | Cc1nnc2n(c1=O)CCN2C | > 100 µM (inactive) | > 100 µM (inactive) | > 100 | > 100 µM (inactive) | > 100 µM (inactive) | > 100 µM (inactive) | > 100 µM (inactive) | > 100 µM (inactive) | > 100 µM (inactive) | > 100 µM (inactive) | > 100 µM (inactive) | > 100 µM (inactive) | > 100 µM (inactive) | 89.7 µM (inactive) | > 100 µM (inactive) | > 100 µM (inactive) | > 100 µM (inactive) | > 100 µM (inactive) | > 100 µM (inactive) | –
2 | c1ccc(C2SCc3nc4ccccc4n32)cc1 (stereo unspecified) | 19.1 µM (inactive) | 32.4 µM (inactive) | 44.4 | 37.9 µM (inactive) | > 100 µM (inactive) | 58.7 µM (inactive) | 50.1 µM (inactive) | 32.2 µM (inactive) | 29.2 µM (inactive) | 51.4 µM (inactive) | 28.2 µM (inactive) | 23 µM (inactive) | 30.4 µM (inactive) | 3.14 µM (inactive) | – | – | – | 22.2 µM (inactive) | 31.5 µM (inactive) | –
3 | CC(C)CCc1n[nH]c(=O)n1/N=C\c1ccccc1 | > 100 µM (inactive) | > 100 µM (inactive) | > 100 | > 100 µM (inactive) | > 100 µM (inactive) | > 100 µM (inactive) | > 100 µM (inactive) | > 100 µM (inactive) | > 100 µM (inactive) | > 100 µM (inactive) | 67.8 µM (inactive) | > 100 µM (inactive) | > 100 µM (inactive) | > 100 µM (inactive) | – | > 100 µM (inactive) | – | > 100 µM (inactive) | > 100 µM (inactive) | 57.4 µM (inactive)
4 | CN(C(=O)Cc1ccc(Cl)c(Cl)c1)[C@H]1CCCC[C@@H]1[N+]1(C)CCCC1 | > 100 µM (inactive) | > 100 µM (inactive) | > 100 | > 100 µM (inactive) | > 100 µM (inactive) | > 100 µM (inactive) | > 100 µM (inactive) | > 100 µM (inactive) | > 100 µM (inactive) | > 100 µM (inactive) | > 100 µM (inactive) | > 100 µM (inactive) | – | – | > 100 µM (inactive) | > 100 µM (inactive) | > 100 µM (inactive) | – | > 100 µM (inactive) | > 100 µM (inactive)
5 | COc1ccc2cc(NC(=O)Nn3cnnc3)ccc2c1 | > 100 µM (inactive) | 92.5 µM (inactive) | > 100 | > 100 µM (inactive) | > 100 µM (inactive) | > 100 µM (inactive) | > 100 µM (inactive) | > 100 µM (inactive) | > 100 µM (inactive) | > 100 µM (inactive) | > 100 µM (inactive) | > 100 µM (inactive) | > 100 µM (inactive) | 12.7 µM (inactive) | > 100 µM (inactive) | > 100 µM (inactive) | > 100 µM (inactive) | > 100 µM (inactive) | > 100 µM (inactive) | –
6 | N/C(=N\c1ccc(Cl)cc1)NS(=O)(=O)c1cc(Cl)c(Oc2ccc([N+](=O)[O-])cc2Cl)c(Cl)c1 | 16.8 µM (inactive) | 17.8 µM (inactive) | 16.9 | > 100 µM (inactive) | 19.7 µM (inactive) | 14.8 µM (inactive) | 17.2 µM (inactive) | 17.6 µM (inactive) | 15.8 µM (inactive) | 20 µM (inactive) | 14.8 µM (inactive) | 17.4 µM (inactive) | – | 17.1 µM (inactive) | 17.4 µM (inactive) | 18.4 µM (inactive) | – | 17.2 µM (inactive) | 16.8 µM (inactive) | 17.2 µM (inactive)
7 | CCC(C)[C@@H](NCc1ccccc1)[C@H](OCc1ccccc1)[C@@H]1COC(C)(C)O1 (stereo partly specified) | 28.7 µM (inactive) | 18.8 µM (inactive) | 15.7 | 22.8 µM (inactive) | 26.1 µM (inactive) | 19.2 µM (inactive) | 25.4 µM (inactive) | 17 µM (inactive) | 17.6 µM (inactive) | 18 µM (inactive) | 25.5 µM (inactive) | 21 µM (inactive) | – | 32.6 µM (inactive) | – | 32.5 µM (inactive) | 21.2 µM (inactive) | 10.4 µM (inactive) | 18.8 µM (inactive) | 21.1 µM (inactive)
8 | C=CCC1(CN(C)C)CC/C(=C\c2ccc(OC)cc2)C1=O (stereo unspecified) | > 100 µM (inactive) | 74.3 µM (inactive) | 52 | > 100 µM (inactive) | > 100 µM (inactive) | 89.5 µM (inactive) | > 100 µM (inactive) | > 100 µM (inactive) | > 100 µM (inactive) | 30.9 µM (inactive) | 28.7 µM (inactive) | > 100 µM (inactive) | 38.7 µM (inactive) | > 100 µM (inactive) | – | – | – | 83.6 µM (inactive) | 81.7 µM (inactive) | –
